One assay relates to lymphocyte blastogenesis. The conditions noted are these: induction of lymphocyte blastogenesis, activity declined at higher doses; cited from earlier work.
In a further assay the test system is IL-2 mRNA. The assay is described as follows: PHA-P-induced leukocyte IL-2 mRNA expression in heparinized whole blood of healthy adults. It is filed as cell-based, human. An excerpt: Blood was obtained from healthy adults and from patients with psoriasis (4), aplastic anemia (1), nephrotic syndrome (1), and bone marrow transplantation (2). At the time of blood draw, one EDTA tube was sent to clinical laboratory for the measurement of leukocyte counts, and one heparin tube was stored on ice. […] Fifty μL each of blood sample was applied to three different wells of filterplates (triplicate from the beginning), and leukocytes were collected on the membrane by centrifugation at 800×g for 2 min. After washing each well with 300 μL phosphate buffered saline (PBS) once by centrifugation, the lysis buffer described above was applied to each well and incubated at 37° C. for 10 min to release mRNA from trapped leukocytes. The lysate was then transferred to oligo-(dT)-immobilized microplates (GenePlate, RNAture, Irvine, Calif.) by centrifugation at 2000× g for 5 min, and incubated at 4° C. overnight for hybridization. After washing each well with 100 μL lysis buffer 3 times followed by 150 μL wash buffer (10 mM Tris, pH 7.4, 1 mM EDTA, pH 8.0, and 0.5 M NaCl) 3 times, cDNA was synthesized in each well by adding buffer, nucleotides, a cocktail of specific primers, RNasin, and MMLV reverse transcriptase (Promega, Madison, Wis.), and incubated at 37° C. for 2 hours. […]

A value given as a limit tells only on which side of the number the result lay.

In the case of phytohemagglutinin-P [PHA-P], the “PHA-P concentration of maximal action” value in the assay on lymphocyte blastogenesis is 10 to 20 µg/mL. For the same substance, the “PHA-P concentration from which IL-2 mRNA increased” value with IL-2 mRNA (heparinized whole blood (FIG. 18)) is at least 5 µg/mL. For the same substance, in the assay with IL-2 mRNA (heparinized whole blood (FIG. 18, 19)), the “PHA-P concentration over which IL-2 mRNA reached a plateau” value is “over 40 μg/mL”.

These data come from patent US20090011410A1, “METHOD FOR TAILORING ADMINISTRATION OF DRUGS BY QUANTITATION OF MRNA” (priority 2004, published 2009).
